Measured values from article PMC4370687, “Functional Characterization of the 1,5-Benzodiazepine Clobazam and Its Major Active Metabolite N-Desmethylclobazam at Human GABAA Receptors Expressed in Xenopus laevis Oocytes” (PLoS ONE, 2015).

Tests used:
[1] = biological target: T1, human α2β2γ2S GABAAR (Homo sapiens, UniProt P18507+P47869+P47870); experiment: Potentiation of GABA EC20-evoked currents, TEVC in Xenopus oocytes; type: cell-based
T1 construct: expressed in transfected cells; host or cells: Xenopus laevis oocytes (cRNA injection, α:β2:γ2S 1:1:1; 1:1:5 in the zolpidem comparison)
T1 sequence (P47869 29-451): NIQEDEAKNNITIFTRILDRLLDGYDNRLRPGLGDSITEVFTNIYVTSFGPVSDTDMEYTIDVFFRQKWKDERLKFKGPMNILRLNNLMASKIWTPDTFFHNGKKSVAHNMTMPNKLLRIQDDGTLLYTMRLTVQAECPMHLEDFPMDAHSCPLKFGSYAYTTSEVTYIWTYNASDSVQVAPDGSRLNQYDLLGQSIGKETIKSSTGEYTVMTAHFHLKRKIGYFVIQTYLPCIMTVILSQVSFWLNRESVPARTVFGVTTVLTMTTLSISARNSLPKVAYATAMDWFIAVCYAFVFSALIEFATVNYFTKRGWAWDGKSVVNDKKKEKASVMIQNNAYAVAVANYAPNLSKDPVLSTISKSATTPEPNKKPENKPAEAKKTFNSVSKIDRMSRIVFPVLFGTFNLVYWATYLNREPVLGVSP
T1 sequence (P47870 26-474 isoform P47870-1 limits assumed): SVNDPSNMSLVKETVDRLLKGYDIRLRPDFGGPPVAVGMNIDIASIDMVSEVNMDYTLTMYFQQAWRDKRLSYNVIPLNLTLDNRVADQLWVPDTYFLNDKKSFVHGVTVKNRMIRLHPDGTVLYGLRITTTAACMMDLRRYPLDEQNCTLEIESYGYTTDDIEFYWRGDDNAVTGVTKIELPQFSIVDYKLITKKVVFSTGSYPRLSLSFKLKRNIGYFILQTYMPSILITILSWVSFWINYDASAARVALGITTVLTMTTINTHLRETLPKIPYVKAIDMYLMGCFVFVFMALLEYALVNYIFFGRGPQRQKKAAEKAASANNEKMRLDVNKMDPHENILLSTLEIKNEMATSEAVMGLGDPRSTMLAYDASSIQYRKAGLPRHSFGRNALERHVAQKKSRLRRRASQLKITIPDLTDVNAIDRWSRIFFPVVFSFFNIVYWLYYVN
T1 sequence (P18507 40-467 isoform P18507-1 limits assumed): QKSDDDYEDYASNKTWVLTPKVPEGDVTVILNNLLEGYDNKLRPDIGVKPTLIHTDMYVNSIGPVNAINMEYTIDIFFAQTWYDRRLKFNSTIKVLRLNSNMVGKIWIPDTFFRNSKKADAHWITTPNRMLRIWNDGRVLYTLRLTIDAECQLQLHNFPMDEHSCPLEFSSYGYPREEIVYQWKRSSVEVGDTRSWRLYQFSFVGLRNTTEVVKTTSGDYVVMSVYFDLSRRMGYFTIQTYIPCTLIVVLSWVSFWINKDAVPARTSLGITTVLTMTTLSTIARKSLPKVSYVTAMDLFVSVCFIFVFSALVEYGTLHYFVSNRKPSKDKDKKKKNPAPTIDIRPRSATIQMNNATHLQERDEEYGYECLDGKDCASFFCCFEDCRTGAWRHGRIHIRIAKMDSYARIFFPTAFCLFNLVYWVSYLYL
Experimental: (§1) The cDNAs encoding the human GABAAR subunits were linearized with DraIII (α1, α2, α3, α5 and α6), SmaI (β2 and γ2S) or StuI (δ) and used as templates for in vitro cRNA synthesis using the T7 mMESSAGE mMACHINE High Yield Capped RNA Transcription Kit (Life Technologies Corporation, Carlsbad, CA, USA). Except where otherwise indicated, Xenopus oocytes were injected with 36.8 nL cRNA solution encoding for α1β2γ2S, α2β2γ2S, α3β2γ2S and α5β2γ2S GABAARs in a 1:1:1 α:β2:γ2S ratio (2.7 ng/μL of each subunit), with 46 nL cRNA solution encoding for the α6β2δ GABAAR in a 10:1:10 α6:β2:δ ratio (1:0.1:1 μg/μL), with 18 nL cRNA solution encoding for the α1β2 GABAAR in a 1:1 α1:β2 ratio (0.6:0.6 μg/μL), or with 46 nL cRNA encoding for α6β2 (α6:β2 ratio: 1:0.1 μg/μL). Following injection, the oocytes were incubated at 18°C in modified Barth’s solution [88 mM NaCl, 1 mM KCl, 15 mM HEPES (pH 7.5), 2.4 mM NaHCO3, 0.41 mM CaCl2, 0.82 mM MgSO4, 0.3 mM Ca(NO3)2, 100 U/mL penicillin and 100 μg/mL streptomycin]. Electrophysiological recordings were performed 3 to 6 days after injection.
(§2) Electrophysiological recordings were performed using the TEVC technique on Xenopus oocytes expressing various GABAAR combinations using a protocol adapted from previous studies. […] Cells were impaled with agar-plugged 0.5–1 MΩ electrodes containing 3 M KCl and voltage clamped at −70 mV by a Gene Clamp 500B amplifier (Axon Instruments, Union City, CA, USA) and recorded with pClamp 10 (Windows version, Molecular Devices, LLC, Sunnyvale, CA, USA). The oocytes were continuously perfused with Ringer buffer, and the test compounds were applied in the perfusate. Experiments were performed at room temperature and each data point represents the mean ± S.E.M. value of recordings performed on at least two oocytes from at least two different batches of oocytes. The recorded baseline-to-peak current amplitudes were analyzed using Clampfit 10.1 (Axon Instruments, Union City, CA, USA). […] The presence of δ in cell surface-expressed receptors in α6β2δ-injected oocytes was confirmed on a routinely basis using the δ-GABAAR selective PAM DS2 (1 μM). Furthermore, taking advantage of the differential sensitivity of αβ and αβδ receptors to Zn^2+ as antagonist, 1 μM ZnCl2 was used to verify that a homogenous population of ternary α6β2δ receptor complexes was expressed in these oocytes.
(§3) Two to five minutes of wash time between each application were permitted to overcome receptor desensitization. […] Concentration-response curves for the benzodiazepines were fitted using Equation 1.
To address this aspect, we compared the maximum responses mediated by saturating concentrations (3 μM) of clobazam, N-desmethylclobazam, and clonazepam at the GABAARs with the maximal responses mediated by a saturating concentration of diazepam, a 1,4-benzodiazepine often referred to as a “full benzodiazepine agonist”. […] We also compared the maximum degree of potentiation mediated by clobazam at the α2β2γ2S GABAAR with the maximal responses induced by a saturating concentration of zolpidem. […] In this experiment cRNA for α2β2γ2S was injected in a ratio of 1:1:5 (α2:β2:γ2S) to facilitate the expression of a homogenous population of γ2S-containing complexes.

[2] = biological target: T2, human α3β2γ2S GABAAR (Homo sapiens, UniProt P18507+P34903+P47870); experiment: as above; type: cell-based
T2 construct: expressed in transfected cells; host or cells: Xenopus laevis oocytes (cRNA injection, 1:1:1)
T2 sequence (P34903 29-492): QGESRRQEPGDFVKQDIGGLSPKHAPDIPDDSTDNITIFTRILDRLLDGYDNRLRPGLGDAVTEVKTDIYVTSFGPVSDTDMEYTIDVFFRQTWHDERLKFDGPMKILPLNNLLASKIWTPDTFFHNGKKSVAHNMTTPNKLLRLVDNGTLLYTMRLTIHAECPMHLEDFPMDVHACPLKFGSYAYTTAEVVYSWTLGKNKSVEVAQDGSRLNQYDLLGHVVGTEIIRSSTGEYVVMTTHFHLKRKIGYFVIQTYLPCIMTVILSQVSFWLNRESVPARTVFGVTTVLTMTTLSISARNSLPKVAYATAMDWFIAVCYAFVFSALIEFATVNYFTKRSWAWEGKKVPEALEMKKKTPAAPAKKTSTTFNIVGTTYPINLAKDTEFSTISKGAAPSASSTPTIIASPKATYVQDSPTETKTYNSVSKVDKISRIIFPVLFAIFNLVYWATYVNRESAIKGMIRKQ
T2 sequence (P47870 26-474 isoform P47870-1 limits assumed): as the sequence (P47870 26-474 isoform P47870-1 limits assumed) above
T2 sequence (P18507 40-467 isoform P18507-1 limits assumed): as the sequence (P18507 40-467 isoform P18507-1 limits assumed) above
Experimental: as §1, §2, §3

[3] = biological target: T3, human α5β2γ2S GABAAR (Homo sapiens, UniProt P18507+P31644+P47870); experiment: as above; type: cell-based
T3 construct: expressed in transfected cells; host or cells: Xenopus laevis oocytes (cRNA injection, 1:1:1)
T3 sequence (P31644 32-462): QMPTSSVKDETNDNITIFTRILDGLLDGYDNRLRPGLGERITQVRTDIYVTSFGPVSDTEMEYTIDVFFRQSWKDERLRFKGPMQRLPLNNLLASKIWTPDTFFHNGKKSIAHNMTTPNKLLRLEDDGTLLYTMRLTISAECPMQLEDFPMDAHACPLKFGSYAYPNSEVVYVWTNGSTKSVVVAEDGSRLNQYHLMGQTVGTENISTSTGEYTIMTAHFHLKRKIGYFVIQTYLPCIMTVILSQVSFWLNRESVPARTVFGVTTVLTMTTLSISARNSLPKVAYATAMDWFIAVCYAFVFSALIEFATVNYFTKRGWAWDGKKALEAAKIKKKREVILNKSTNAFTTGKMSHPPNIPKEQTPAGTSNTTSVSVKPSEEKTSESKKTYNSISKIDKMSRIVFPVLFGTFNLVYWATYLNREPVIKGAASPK
T3 sequence (P47870 26-474 isoform P47870-1 limits assumed): as the sequence (P47870 26-474 isoform P47870-1 limits assumed) above
T3 sequence (P18507 40-467 isoform P18507-1 limits assumed): as the sequence (P18507 40-467 isoform P18507-1 limits assumed) above
Experimental: as §1, §2, §3

[4] = biological target: T4, human α6β2δ GABAAR (Homo sapiens, UniProt P47870+Q16445); experiment: as above; type: cell-based
T4 construct: expressed in transfected cells; host or cells: Xenopus laevis oocytes (cRNA injection, α6:β2:δ 10:1:10)
T4 sequence (Q16445 20-453): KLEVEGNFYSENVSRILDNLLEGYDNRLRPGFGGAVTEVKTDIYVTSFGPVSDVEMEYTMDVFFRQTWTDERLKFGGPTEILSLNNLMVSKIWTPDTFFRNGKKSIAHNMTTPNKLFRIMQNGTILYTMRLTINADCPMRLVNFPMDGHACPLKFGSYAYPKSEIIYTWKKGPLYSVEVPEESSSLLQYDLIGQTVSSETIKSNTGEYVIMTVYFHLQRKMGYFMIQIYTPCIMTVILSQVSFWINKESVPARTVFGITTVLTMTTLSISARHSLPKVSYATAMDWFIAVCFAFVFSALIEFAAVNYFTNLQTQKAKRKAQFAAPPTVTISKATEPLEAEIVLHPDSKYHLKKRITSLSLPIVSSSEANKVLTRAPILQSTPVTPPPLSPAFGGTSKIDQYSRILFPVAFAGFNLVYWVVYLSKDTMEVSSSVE
T4 sequence (P47870 26-474 isoform P47870-1 limits assumed): as the sequence (P47870 26-474 isoform P47870-1 limits assumed) above
T4 sequence (O14764 25-452 partner): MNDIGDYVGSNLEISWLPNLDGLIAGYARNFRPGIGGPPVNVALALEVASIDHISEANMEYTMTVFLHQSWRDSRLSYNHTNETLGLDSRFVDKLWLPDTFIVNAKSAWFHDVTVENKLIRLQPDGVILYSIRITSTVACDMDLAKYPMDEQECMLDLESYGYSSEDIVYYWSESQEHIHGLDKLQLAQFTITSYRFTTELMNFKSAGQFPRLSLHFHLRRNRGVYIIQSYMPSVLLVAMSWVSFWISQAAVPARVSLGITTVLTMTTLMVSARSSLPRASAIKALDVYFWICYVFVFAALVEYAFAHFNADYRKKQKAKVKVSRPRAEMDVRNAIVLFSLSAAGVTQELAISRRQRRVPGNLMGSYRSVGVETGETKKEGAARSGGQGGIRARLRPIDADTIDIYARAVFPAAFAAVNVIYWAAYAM
Experimental: as §1, §2, §3

[5] = biological target: T5, human α1β2γ2S GABAAR (Homo sapiens, UniProt P14867+P18507+P47870); settings: % of the response evoked by GABA EC20 (EC20 response = 100%)
T5 sequence (P14867 28-456): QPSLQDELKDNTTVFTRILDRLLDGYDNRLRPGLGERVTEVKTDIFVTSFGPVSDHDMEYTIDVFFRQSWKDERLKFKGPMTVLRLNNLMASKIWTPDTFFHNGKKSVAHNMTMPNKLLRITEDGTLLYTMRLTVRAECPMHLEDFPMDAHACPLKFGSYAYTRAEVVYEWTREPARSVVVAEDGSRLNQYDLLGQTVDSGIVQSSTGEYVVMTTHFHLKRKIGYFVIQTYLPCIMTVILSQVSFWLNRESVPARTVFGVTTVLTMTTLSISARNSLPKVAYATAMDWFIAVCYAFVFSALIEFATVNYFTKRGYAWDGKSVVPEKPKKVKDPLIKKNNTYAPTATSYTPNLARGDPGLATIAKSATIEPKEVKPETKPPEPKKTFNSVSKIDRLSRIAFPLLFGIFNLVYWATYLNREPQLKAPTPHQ
T5 sequence (P47870 26-474 isoform P47870-1 limits assumed): as the sequence (P47870 26-474 isoform P47870-1 limits assumed) above
T5 sequence (P18507 40-467 isoform P18507-1 limits assumed): as the sequence (P18507 40-467 isoform P18507-1 limits assumed) above
Experimental: (§6) Electrophysiological recordings were performed using the TEVC technique on Xenopus oocytes expressing various GABAAR combinations using a protocol adapted from previous studies [44, 45]. […] Cells were impaled with agar-plugged 0.5–1 MΩ electrodes containing 3 M KCl and voltage clamped at −70 mV by a Gene Clamp 500B amplifier (Axon Instruments, Union City, CA, USA) and recorded with pClamp 10 (Windows version, Molecular Devices, LLC, Sunnyvale, CA, USA). The oocytes were continuously perfused with Ringer buffer, and the test compounds were applied in the perfusate. Experiments were performed at room temperature and each data point represents the mean ± S.E.M. value of recordings performed on at least two oocytes from at least two different batches of oocytes. The recorded baseline-to-peak current amplitudes were analyzed using Clampfit 10.1 (Axon Instruments, Union City, CA, USA).

[6] = tested on: rat α3β3γ2L GABAAR; settings: patch clamp, cited from earlier work
[7] = tested on: human α1,2,3,5β2γ2S GABAARs; settings: cited from earlier work
[8] = tested on: α1β2γ1 receptors; settings: Xenopus oocytes; cited from earlier work
[9] = biological target: T5, human α1β2γ2S GABAAR; experiment: cell-based
Experimental: as §6

[10] = humans; cited from earlier work
[11] = biological target: T1, human α2β2γ2S GABAAR; experiment: GABA concentration-response, TEVC electrophysiology in Xenopus oocytes; type: cell-based; settings: GABA as agonist
Experimental: as §1
(§4) Electrophysiological recordings were performed using the TEVC technique on Xenopus oocytes expressing various GABAAR combinations using a protocol adapted from previous studies. […] Cells were impaled with agar-plugged 0.5–1 MΩ electrodes containing 3 M KCl and voltage clamped at −70 mV by a Gene Clamp 500B amplifier (Axon Instruments, Union City, CA, USA) and recorded with pClamp 10 (Windows version, Molecular Devices, LLC, Sunnyvale, CA, USA). The oocytes were continuously perfused with Ringer buffer, and the test compounds were applied in the perfusate. Experiments were performed at room temperature and each data point represents the mean ± S.E.M. value of recordings performed on at least two oocytes from at least two different batches of oocytes. The recorded baseline-to-peak current amplitudes were analyzed using Clampfit 10.1 (Axon Instruments, Union City, CA, USA). […]

[12] = biological target: T2, human α3β2γ2S GABAAR; experiment: as above; type: cell-based; settings: GABA as agonist
Experimental: as §1, §4

[13] = biological target: T3, human α5β2γ2S GABAAR; experiment: as above; type: cell-based; settings: GABA as agonist
Experimental: as §1, §4

[14] = biological target: T6, human α6β2 GABAAR (Homo sapiens, UniProt P47870+Q16445); experiment: as above; type: cell-based; settings: GABA as agonist
T6 construct: expressed in transfected cells; host or cells: Xenopus laevis oocytes (cRNA injection)
T6 sequence (Q16445 20-453): as the sequence (Q16445 20-453) above
T6 sequence (P47870 26-474 isoform P47870-1 limits assumed): as the sequence (P47870 26-474 isoform P47870-1 limits assumed) above
Experimental: as §1, with “Following injection, the oocytes were incubated at 18°C in modified Barth’s solution [88 mM NaCl, 1 mM KCl, 15 mM HEPES (pH 7.5), 2.4 mM NaHCO3, 0.41 mM CaCl2, 0.82 mM MgSO4, 0.3 mM Ca(NO3)2, 100 U/mL penicillin and 100 μg/mL streptomycin]. Electrophysiological recordings were performed 3 to 6 days after injection.” left out
(§5) Electrophysiological recordings were performed using the TEVC technique on Xenopus oocytes expressing various GABAAR combinations using a protocol adapted from previous studies. […] Cells were impaled with agar-plugged 0.5–1 MΩ electrodes containing 3 M KCl and voltage clamped at −70 mV by a Gene Clamp 500B amplifier (Axon Instruments, Union City, CA, USA) and recorded with pClamp 10 (Windows version, Molecular Devices, LLC, Sunnyvale, CA, USA). […] The recorded baseline-to-peak current amplitudes were analyzed using Clampfit 10.1 (Axon Instruments, Union City, CA, USA). […]

[15] = biological target: T5, human α1β2γ2S GABAAR; experiment: as above; type: cell-based; design: expressed in transfected cells; host or cells: Xenopus laevis oocytes (cRNA injection, α:β2:γ2S 1:1:1); settings: GABA as agonist
Experimental: as §1, with “Following injection, the oocytes were incubated at 18°C in modified Barth’s solution [88 mM NaCl, 1 mM KCl, 15 mM HEPES (pH 7.5), 2.4 mM NaHCO3, 0.41 mM CaCl2, 0.82 mM MgSO4, 0.3 mM Ca(NO3)2, 100 U/mL penicillin and 100 μg/mL streptomycin]. Electrophysiological recordings were performed 3 to 6 days after injection.” left out
as §5

[16] = % of the response evoked by GABA EC20 (EC20 response = 100%)

SMILES | EC50 [1] [nM] | Imax ± S.E.M. [1, 16] [%] | EC50 [2] [nM] | Imax ± S.E.M. [2, 16] [%] | EC50 [3] [nM] | Imax ± S.E.M. [3, 16] [%] | Imax ± S.E.M. [4, 16] [%] | EC50 ([4]; EC50, PAM, co-applied with GABA EC20, N-desmethylclobazam value estimated, curve not saturated at 1 mM) [nM] | Imax ± S.E.M. [5] [%] | EC50 ([6]; 3 μM GABA (EC10–EC20), HEK-293T cells) [nM] | Imax ([6]; % of the responses evoked by GABA EC10–EC20, HEK-293T cells) [%] | fold higher binding affinity at α2β2γ2S compared to α1β2γ2S [7] [fold] | potentiation of GABA EC5-EC10-evoked responses [8] | EC50 [9] [nM] | plasma half-life [10] [h] | Hill slope nH ± S.E.M. [11] | Hill slope nH ± S.E.M. [12] | Hill slope nH ± S.E.M. [13] | Hill slope nH ± S.E.M. [14] | Hill slope nH ± S.E.M. [15]
CN1C(=O)CC(=O)N(c2ccccc2)c2cc(Cl)ccc21 [clobazam] | 138 | 261 ± 6.7 | 240 | 269 ± 0.8 | 174 | 216 ± 7.0 | 528 ± 46 | 55000 | 256 ± 12 | 490 | 487 | 2.5 | negligible potentiation | 132 | 36 | – | – | – | – | –
NCCCC(=O)O [GABA, γ-aminobutyric acid] | – | – | – | – | – | – | – | – | – | – | – | – | – | – | – | 1.44 ± 0.07 | 1.22 ± 0.05 | 1.19 ± 0.08 | 0.89 ± 0.09 | 1.19 ± 0.05
